# Results taken from patent US8258114B2, “Modulation of glucose-6-phosphatase translocase expression” (Isis Pharmaceuticals, Inc., priority 2004, dated 2012).
# Oligonucleotides are written 5' to 3', each unit as a sugar letter and its base; * is a phosphorothioate linkage, no mark a phosphodiester; rarer units and linkages stand in square brackets, end groups in braces. Plain capitals give the bases only. e = 2'-O-(2-methoxyethyl) (MOE); [5mC] = 5-methylcytosine; d = 2'-deoxy (DNA)
# Key:
# [1] = tested on: human glucose-6-phosphatase translocase mRNA; experiment: Antisense inhibition of human glucose-6-phosphatase translocase mRNA in HepG2 cells (Table 11); assay type: cell-based; set-up: concentration or dose not given beside the values; details: LIPOFECTIN, mRNA by real-time PCR
# Summary of the method: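 HepG2 cells at 65-75% confluency transfected with 2′-MOE gapmer oligonucleotides using LIPOFECTIN (2.5 or 3 μg/mL per 100 nM oligo) for 4-7 h and harvested 16-24 h later. Target mRNA measured by RT real-time PCR and normalized to GAPDH or RiboGreen total RNA.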
# [2] = Body weight and tissue weights of normal Sprague-Dawley rats (Table 13); details: for Spleen weight / Fat weight / Kidney weight / Liver weight: end of study; for Increases in body weights (in words): 12.5 to 50 mg/kg, throughout the study
# Procedure: For three weeks, male Sprague-Dawley rats were injected twice-weekly with doses of 12.5 mg/kg, 25 mg/kg, or 50 mg/kg of ISIS 145760, ISIS 359543, or ISIS 366228. Each treatment group was comprised of 4 animals. Animals which received twice weekly injections of saline served as controls.
# Body weight was monitored throughout the study period. […] Tissue weights were also measured at the end of the study.
# [3] = Plasma glucose, cholesterol and triglycerides in normal Sprague-Dawley rats (Table 14); assay type: in vivo, rat; set-up: plasma GLUCOSE WK 0 / plasma GLUCOSE WK 3: unit not given beside the values; details: for plasma triglycerides (in words): 12.5 to 50 mg/kg, three weeks
# Procedure: (§1) Each treatment group was comprised of 4 animals.
# To further assess the physiological effects resulting from inhibition of target mRNA, the rats were evaluated at the beginning (Wk 0) and at the end (Wk 3) of the treatment period for plasma glucose, plasma cholesterol, and plasma triglyceride levels. Triglycerides and cholesterol were measured by routine clinical analyzer instruments (e.g. Olympus Clinical Analyzer, Melville, N.Y.). Glucose levels were measured using a glucose analyzer, for example a YSI glucose analyzer (YSI Scientific, Yellow Springs, Ohio). Results are presented in Table 14 as the average level of plasma glucose, plasma cholesterol (CHOL), or plasma triglycerides (TRIG) measured per treatment group.
# [4] = tested on: mouse glucose-6-phosphatase translocase mRNA; experiment: Antisense inhibition of mouse glucose-6-phosphatase translocase mRNA in primary mouse hepatocytes, 150 nM, LIPOFECTIN (Table 22); assay type: cell-based; details: real-time PCR
# Summary of the method: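 Primary CD-1 mouse hepatocytes at 65-75% confluency transfected ~4-7 h at 37° C with 150 nM 5-10-5 2′-MOE gapmer phosphorothioate oligonucleotides plus LIPOFECTIN (2.5 or 3 μg/mL per 100 nM). Harvested 16-24 h post-treatment; mRNA by real-time RT-PCR, normalized to GAPDH or RiboGreen total RNA, expressed as percent inhibition.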
# [5] = tested on: glucose-6-phosphatase translocase mRNA; experiment: Target reduction in liver: rat dose-response study (Table 12); assay type: in vivo; details: Sprague-Dawley rats; for % Inhibition, target reduction in liver: three weeks; for target mRNA levels in rat liver (in words): 12.5 to 50 mg/kg
# Procedure: as §1
# At the end of the treatment period, animals were sacrificed and target reduction in liver was measured by real-time PCR as described in other examples herein. Results are shown in Table 12 as the average percent reduction in glucose-6-phosphatase translocase levels as compared to saline treated control.
# [6] = 12.5 mg/kg twice weekly, saline 0.7
# [7] = 12.5 mg/kg twice weekly, saline 1.8
# [8] = 12.5 mg/kg twice weekly, saline 3
# [9] = 12.5 mg/kg twice weekly, saline 15
# [10] = 12.5 mg/kg twice weekly, week 3, saline 290
# [11] = 12.5 mg/kg twice weekly, saline 58
# [12] = 12.5 mg/kg twice weekly, saline 69
# [13] = 12.5 mg/kg twice weekly, saline 74
# [14] = 12.5 mg/kg twice weekly, saline 135
# [15] = 12.5 mg/kg twice weekly, saline 139
# [16] = 12.5 mg/kg twice weekly, saline 140
sequence,measurement,setting,value
CGGCCCATCTTGGTGCGGAT (e[5mC]*eG*eG*e[5mC]*e[5mC]*d[5mC]*dA*dT*d[5mC]*dT*dT*dG*dG*dT*dG*e[5mC]*eG*eG*eA*eT; antisense) [ISIS 145706],% Inhib,[1],96%
same,Spleen weight,[2]; [6],0.7 grams
same,Fat weight,[2]; [7],1.5 grams
same,Kidney weight,[2]; [8],3 grams
same,Liver weight,[2]; [9],15 grams
same,Body weight,[2]; [10],289 grams
same,Fat weight,[2]; 25 mg/kg twice weekly,1.3 grams
same,Kidney weight,[2]; 25 mg/kg twice weekly,3 grams
same,Liver weight,[2]; 25 mg/kg twice weekly,15 grams
same,Spleen weight,[2]; 25 mg/kg twice weekly,1.0 grams
same,Body weight,"[2]; 25 mg/kg twice weekly, week 3",300 grams
same,Fat weight,[2]; 50 mg/kg twice weekly,1.2 grams
same,Kidney weight,[2]; 50 mg/kg twice weekly,3 grams
same,Liver weight,[2]; 50 mg/kg twice weekly,16 grams
same,Spleen weight,[2]; 50 mg/kg twice weekly,0.9 grams
same,Body weight,"[2]; 50 mg/kg twice weekly, week 3",290 grams
same,Increases in body weights (in words),[2],comparable to the increases in body weight observed for saline-treated control animals
same,plasma cholesterol (CHOL) WK 3,[3]; [11],51
same,plasma triglycerides (TRIG) WK 0,[3]; [12],54
same,plasma cholesterol (CHOL) WK 0,[3]; [13],69
same,plasma GLUCOSE WK 0,[3]; [14],149
same,plasma GLUCOSE WK 3,[3]; [15],151
same,plasma triglycerides (TRIG) WK 3,[3]; [16],61
same,plasma GLUCOSE WK 0,[3]; 25 mg/kg twice weekly,149
same,plasma GLUCOSE WK 3,[3]; 25 mg/kg twice weekly,148
same,plasma cholesterol (CHOL) WK 0,[3]; 25 mg/kg twice weekly,80
same,plasma cholesterol (CHOL) WK 3,[3]; 25 mg/kg twice weekly,59
same,plasma triglycerides (TRIG) WK 0,[3]; 25 mg/kg twice weekly,45
same,plasma triglycerides (TRIG) WK 3,[3]; 25 mg/kg twice weekly,58
same,plasma GLUCOSE WK 0,[3]; 50 mg/kg twice weekly,148
same,plasma GLUCOSE WK 3,[3]; 50 mg/kg twice weekly,151
same,plasma cholesterol (CHOL) WK 0,[3]; 50 mg/kg twice weekly,79
same,plasma cholesterol (CHOL) WK 3,[3]; 50 mg/kg twice weekly,57
same,plasma triglycerides (TRIG) WK 0,[3]; 50 mg/kg twice weekly,66
same,plasma triglycerides (TRIG) WK 3,[3]; 50 mg/kg twice weekly,52
same,plasma triglycerides (in words),[3],prevented the increases in triglycerides observed in saline-treated animals
same,% Inhib of mouse glucose-6-phosphatase translocase mRNA levels,[4],54%
same,"% Inhibition, target reduction in liver",[5]; 12.5 mg/kg twice weekly,12%
same,"% Inhibition, target reduction in liver",[5]; 25 mg/kg twice weekly,56%
same,"% Inhibition, target reduction in liver",[5]; 50 mg/kg twice weekly,77%
same,target mRNA levels in rat liver (in words),[5],effective in reducing target mRNA levels in rat liver in a dose-dependent manner
GTGCTTGGCAATGGTGCTGA (eG*eT*eG*e[5mC]*eT*dT*dG*dG*d[5mC]*dA*dA*dT*dG*dG*dT*eG*e[5mC]*eT*eG*eA; antisense) [ISIS 359543],% Inhib,[1],74%
same,Spleen weight,[2]; [6],0.9 grams
same,Fat weight,[2]; [7],1.4 grams
same,Kidney weight,[2]; [8],3 grams
same,Liver weight,[2]; [9],15 grams
same,Body weight,[2]; [10],285 grams
same,Fat weight,[2]; 25 mg/kg twice weekly,1.3 grams
same,Kidney weight,[2]; 25 mg/kg twice weekly,3 grams
same,Liver weight,[2]; 25 mg/kg twice weekly,16 grams
same,Spleen weight,[2]; 25 mg/kg twice weekly,1.1 grams
same,Body weight,"[2]; 25 mg/kg twice weekly, week 3",295 grams
same,Fat weight,[2]; 50 mg/kg twice weekly,1.0 grams
same,Kidney weight,[2]; 50 mg/kg twice weekly,3 grams
same,Liver weight,[2]; 50 mg/kg twice weekly,13 grams
same,Spleen weight,[2]; 50 mg/kg twice weekly,1.4 grams
same,Body weight,"[2]; 50 mg/kg twice weekly, week 3",277 grams
same,Increases in body weights (in words),[2],comparable to the increases in body weight observed for saline-treated control animals
same,plasma cholesterol (CHOL) WK 3,[3]; [11],57
same,plasma triglycerides (TRIG) WK 0,[3]; [12],69
same,plasma cholesterol (CHOL) WK 0,[3]; [13],80
same,plasma GLUCOSE WK 0,[3]; [14],138
same,plasma GLUCOSE WK 3,[3]; [15],165
same,plasma triglycerides (TRIG) WK 3,[3]; [16],61
same,plasma GLUCOSE WK 0,[3]; 25 mg/kg twice weekly,138
same,plasma GLUCOSE WK 3,[3]; 25 mg/kg twice weekly,154
same,plasma cholesterol (CHOL) WK 0,[3]; 25 mg/kg twice weekly,82
same,plasma cholesterol (CHOL) WK 3,[3]; 25 mg/kg twice weekly,57
same,plasma triglycerides (TRIG) WK 0,[3]; 25 mg/kg twice weekly,62
same,plasma triglycerides (TRIG) WK 3,[3]; 25 mg/kg twice weekly,37
same,plasma GLUCOSE WK 0,[3]; 50 mg/kg twice weekly,135
same,plasma GLUCOSE WK 3,[3]; 50 mg/kg twice weekly,136
same,plasma cholesterol (CHOL) WK 0,[3]; 50 mg/kg twice weekly,87
same,plasma cholesterol (CHOL) WK 3,[3]; 50 mg/kg twice weekly,54
same,plasma triglycerides (TRIG) WK 0,[3]; 50 mg/kg twice weekly,69
same,plasma triglycerides (TRIG) WK 3,[3]; 50 mg/kg twice weekly,19
same,plasma triglycerides (in words),[3],dose-dependent reductions in plasma triglycerides
same,"% Inhibition, target reduction in liver",[5]; 12.5 mg/kg twice weekly,50%
same,"% Inhibition, target reduction in liver",[5]; 25 mg/kg twice weekly,62%
same,"% Inhibition, target reduction in liver",[5]; 50 mg/kg twice weekly,77%
same,target mRNA levels in rat liver (in words),[5],effective in reducing target mRNA levels in rat liver in a dose-dependent manner
